Counter-ions that a name gives are not always drawn. Like-named read-outs stand apart in the source and are kept apart here.
Columns and labels:
[1] = Bioavailability of phenylephrine: plasma levels after delivery to the colon via Enterion capsules or oral Sudafed PE; assay type: in vivo, human; conditions: for t1/2, unconjugated Phenylephrine / Tmax, unconjugated Phenylephrine: hydrochloride; for Tlag, unconjugated Phenylephrine / Tmax, unconjugated Phenylephrine: median (range); for AUC(0-t) / Cmax / bioavailability / concentration at 0.083 h / concentration at […] / concentration at 0.5 h / concentration at 1 h / concentration at 2 h / concentration at 3 h / concentration at 4 h / concentration at 6 h / concentration at 8 h / concentration at 12 h / concentration at 14 h / concentration at 16 h / concentration at 24 h: both sexes, human, plasma, oral; for Cmax: read-out: Cmax, unconjugated Phenylephrine; for bioavailability: read-out: Frel last (bioavailability relative to immediate release oral formulation), unconjugated Phenylephrine; for concentration at 0.083 h: 0.083 h post-dose; for concentration at 0.083 h / concentration at […] / concentration at 0.5 h / concentration at 1 h / concentration at 2 h / concentration at 3 h / concentration at 4 h / concentration at 6 h / concentration at 8 h / concentration at 12 h / concentration at 14 h / concentration at 16 h / concentration at 24 h: read-out: Mean plasma concentration (Unconjugated); for concentration at 0.5 h: 0.5 h post-dose; for concentration at 1 h: 1 h post-dose; for concentration at 2 h: 2 h post-dose; for concentration at 3 h: 3 h post-dose; for concentration at 4 h: 4 h post-dose; for concentration at 6 h: 6 h post-dose; for concentration at 8 h: 8 h post-dose; for concentration at 12 h: 12 h post-dose; for concentration at 14 h: 14 h post-dose; for concentration at 16 h: 16 h post-dose; for concentration at 24 h: 24 h post-dose
Description: The following study was conducted to examine the phenylephrine absorption behavior in GI tract. […] Enterion™ capsules (Pharmaceutical Profiles Ltd, UK) allow for deployment of drug delivery at a desired location within the GI tract. To determine the capsules had reached a desired location, preparations of regimens A and C were administered orally with 210 mL water followed by a radiolabeled drink containing 4 MBq 99m-Tc-diethylenetriaminepetaacetic acid (DTPA) in 30 mL water so that the location of the ingested materials could be visualized by scintigraphic imaging. […] The blood samples were collected into a tube containing lithium heparin, centrifuged within 30 minutes at 1500 g for 15 minutes at 4 degrees Celsius. The plasma was analyzed for phenylephrine in its conjugated and unconjugated forms. The amount of conjugated phenylephrine was calculated by subtracting the amount of unconjugated phenylephrine assayed from the amount of total phenylephrine assayed.
The relative bioavailability, shown as Frel last in the table, indicates the bioavailability of phenylephrine administered to the colon relative to that administered as an immediate release oral formulation.

[2] = oral dosage forms; cited from earlier work
[3] = conventional tablet formulation; cited from earlier work
[4] = 10 mg PE-colon (Regimen A) n = 8
[5] = 30 mg PE-colon (Regimen C) n = 6
[6] = 10 mg PE-colon (Regimen A) n = 8, mean ± SD
[7] = 10 mg to colon via Enterion capsule (Regimen A)
[8] = 30 mg PE-colon (Regimen C) n = 6, mean ± SD
[9] = 30 mg to colon via Enterion capsule (Regimen C)

With `CNC[C@H](O)c1cccc(O)c1` [Phenylephrine hydrochloride, phenylephrine hydrochloride] the “t1/2, unconjugated Phenylephrine” value ([1]; 10 mg PE-colon (Regimen A) n = 2, mean) was 8.19 (n = 2) hours, the “Tlag, unconjugated Phenylephrine” value [1, 4] was 0.0800 (0–0.750)a hours and the “Tmax, unconjugated Phenylephrine” value [1, 4] was 1.50 (0.250–3.00)a hours. The “active unconjugated form as share of total phenylephrine concentration over time in plasma (AUC0-∞ unconjugated / AUC0-∞ total)” value ([1]; 10 mg phenylephrine in immediate release form) was ≤ 0.5%, the “active unconjugated form as share of total phenylephrine concentration over time in plasma (AUC0-∞ unconjugated / AUC0-∞ total)” value ([1]; 10 mg phenylephrine released in the colon) was “approximately 2.2%” and the “t1/2, unconjugated Phenylephrine” value ([1]; 30 mg PE-colon (Regimen C) n = 3, mean ± SD) was 10.8 ± 7.99 (n = 3) hours. For the same molecule, the “Tlag, unconjugated Phenylephrine” value [1, 5] was 0 (0–0.750)a hours, the “Tmax, unconjugated Phenylephrine” value [1, 5] was 2.25 (0.750–6.03)a hours and the “active unconjugated form as share of total phenylephrine concentration over time in plasma (AUC0-∞ unconjugated / AUC0-∞ total)” value ([1]; 30 mg phenylephrine released in the colon) was “Approximately 5%”. For the same molecule, the “increase of bioavailability versus oral immediate release form” value ([1]; absorption from the lower intestinal tract) was “by a factor of three”, the AUC(0-t) ([1]; 10 mg, 10 mg PE-colon (Regimen A) n = 2, mean, read-out: AUC0–24, unconjugated Phenylephrine (Table 13)) was 2.87 ng·h/mL and the AUC(0-t) ([1]; 10 mg, 10 mg phenylephrine hydrochloride delivered to the colon, read-out: mean AUC0-24 value of unconjugated phenylephrine) was 1.58 ± 0.915 ng·h/mL. For the same molecule, the AUC(0-t) ([1]; 30 mg, 30 mg PE-colon (Regimen C) n = 3, mean ± SD, read-out: AUC0–24, unconjugated Phenylephrine (Table 13)) was 8.94 ± 5.16 ng·h/mL, the AUC(0-t) ([1]; 30 mg, 30 mg phenylephrine hydrochloride delivered to the colon, read-out: mean AUC0-24 value of unconjugated phenylephrine) was 5.17 ± 1.56 ng·h/mL and the Cmax [1, 6] was 0.4 ± 0.454 ng/mL. For the same molecule, the bioavailability [1, 6] was 332 ± 232%, the concentration at 0.083 h [1, 7] was 0.0586 ng/mL and the concentration at […] ([1]; 10 mg to colon via Enterion capsule (Regimen A), 0.25 h post-dose) was 0.304 ng/mL. The concentration at 0.5 h [1, 7] was 0.145 ng/mL, the concentration at […] ([1]; 10 mg to colon via Enterion capsule (Regimen A), 0.75 h post-dose) was 0.125 ng/mL and the concentration at 1 h [1, 7] was 0.135 ng/mL. The concentration at […] ([1]; 10 mg to colon via Enterion capsule (Regimen A), 1.5 h post-dose) was 0.16 ng/mL, the concentration at 2 h [1, 7] was 0.187 ng/mL and the concentration at […] ([1]; 10 mg to colon via Enterion capsule (Regimen A), 2.5 h post-dose) was 0.182 ng/mL. For the same molecule, the concentration at 3 h [1, 7] was 0.165 ng/mL, the concentration at 4 h [1, 7] was 0.15 ng/mL and the concentration at 6 h [1, 7] was 0.111 ng/mL. For the same molecule, the concentration at 8 h [1, 7] was 0.068 ng/mL, the concentration at 12 h [1, 7] was 0.058 ng/mL and the concentration at 14 h [1, 7] was 0.059 ng/mL. For the same molecule, the concentration at 16 h [1, 7] was 0.064 ng/mL, the concentration at 24 h [1, 7] was 0.059 ng/mL and the Cmax [1, 8] was 0.468 ± 0.174 ng/mL. The bioavailability [1, 8] was 333 ± 140%, the concentration at 0.083 h [1, 9] was 0.0458 ng/mL and the concentration at […] ([1]; 30 mg to colon via Enterion capsule (Regimen C), 0.25 h post-dose) was 0.0784 ng/mL. It also gave a concentration at 0.5 h [1, 9] of 0.229 ng/mL, a concentration at […] ([1]; 30 mg to colon via Enterion capsule (Regimen C), 0.75 h post-dose) of 0.242 ng/mL and a concentration at 1 h [1, 9] of 0.253 ng/mL. It also gave a concentration at […] ([1]; 30 mg to colon via Enterion capsule (Regimen C), 1.5 h post-dose) of 0.348 ng/mL, a concentration at 2 h [1, 9] of 0.354 ng/mL and a concentration at […] ([1]; 30 mg to colon via Enterion capsule (Regimen C), 2.5 h post-dose) of 0.352 ng/mL. For the same molecule, the concentration at 3 h [1, 9] was 0.324 ng/mL, the concentration at 4 h [1, 9] was 0.309 ng/mL and the concentration at 6 h [1, 9] was 0.311 ng/mL. The concentration at 8 h [1, 9] was 0.269 ng/mL, the concentration at 12 h [1, 9] was 0.195 ng/mL and the concentration at 14 h [1, 9] was 0.204 ng/mL. For the same molecule, the concentration at 16 h [1, 9] was 0.196 ng/mL, the concentration at 24 h [1, 9] was 0.157 ng/mL and the “maximal plasma concentration of unconjugated phenylephrine as percentage of maximal plasma concentration of total phenylephrine” value ([1]; immediate release formulation by oral administration) was “less than 0.7%”. The “half-life of active phenylephrine in plasma” value [2] was “approximately 2 hours”.
For `CCOC(=O)N1CCC(=C2c3ccc(Cl)cc3CCc3cccnc32)CC1` [loratadine], the “time the antihistaminic effect lasts” value [3] is given as > 24 h.

From patent US8956662B2, “Phenylephrine pharmaceutical formulations and compositions for colonic absorption” (MSD Consumer Care, Inc., priority 2006, dated 2015)
